Legend:
Assay type in all cases: functional
[1] = system: SF-539; test: Cytotoxicity against human SF539 cells assessed as growth inhibition after 48 hrs by sulforhodamine B assay; settings: SF-539, 48 h
[2] = system: IGROV-1; test: Cytotoxicity against human IGROV1 cells assessed as cell growth at 100 uM after 48 hrs by sulforhodamine B assay relative to control; settings: IGROV-1, 48 h, read-out: Activity
[3] = system: Hs-578T; test: Cytotoxicity against human Hs 578T cells assessed as cell growth at 0.01 uM after 48 hrs by sulforhodamine B assay relative to control; settings: read-out: Activity
[4] = system: COLO 205; test: Cytotoxicity against human COLO205 cells assessed as cell growth at 10 uM after 48 hrs by sulforhodamine B assay relative to control; settings: COLO 205, 48 h, read-out: Activity
[5] = system: SR; test: Cytotoxicity against human SR cells assessed as cell growth at 100 uM after 48 hrs by sulforhodamine B assay relative to control; settings: read-out: Activity
[6] = system: SK-MEL-28; test: Cytotoxicity against human SK-MEL-28 cells assessed as cell growth at 10 uM after 48 hrs by sulforhodamine B assay relative to control; settings: SK-MEL-28, 48 h, read-out: Activity
[7] = system: OVCAR-3; test: Cytotoxicity against human OVCAR3 cells assessed as cell growth at 1 uM after 48 hrs by sulforhodamine B assay relative to control; settings: OVCAR-3, 48 h, read-out: Activity
[8] = system: SNB-19; test: Cytotoxicity against human SNB19 cells assessed as cell growth at 100 uM after 48 hrs by sulforhodamine B assay relative to control; settings: SNB-19, 48 h, read-out: Activity
[9] = system: SK-MEL-28; test: Cytotoxicity against human SK-MEL-28 cells assessed as cell growth at 100 uM after 48 hrs by sulforhodamine B assay relative to control; settings: SK-MEL-28, 48 h, read-out: Activity
[10] = system: A498; test: Cytotoxicity against human A498 cells assessed as cell growth at 10 uM after 48 hrs by sulforhodamine B assay relative to control; settings: A498, 48 h, read-out: Activity
[11] = system: Hs-578T; test: Cytotoxicity against human Hs 578T cells assessed as cell growth at 0.1 uM after 48 hrs by sulforhodamine B assay relative to control; settings: read-out: Activity
[12] = system: HOP-62; test: Cytotoxicity against human HOP62 cells assessed as cell growth at 0.1 uM after 48 hrs by sulforhodamine B assay relative to control; settings: HOP-62, 48 h, read-out: Activity
[13] = system: NCI-H226; test: Cytotoxicity against human NCI-H226 cells assessed as cell growth at 0.1 uM after 48 hrs by sulforhodamine B assay relative to control; settings: NCI-H226, 48 h, read-out: Activity
[14] = system: M14; test: Cytotoxicity against human M14 cells assessed as cell growth at 0.1 uM after 48 hrs by sulforhodamine B assay relative to control; settings: M14, 48 h, read-out: Activity
[15] = system: MDA-MB-435; test: Cytotoxicity against human MDA-MB-435 cells assessed as cell growth at 1 uM after 48 hrs by sulforhodamine B assay relative to control; settings: MDA-MB-435, 48 h, read-out: Activity
[16] = system: MDA-MB-468; test: Cytotoxicity against human MDA-MB-468 cells assessed as cell growth at 10 uM after 48 hrs by sulforhodamine B assay relative to control; settings: MDA-MB-468, 48 h, read-out: Activity
[17] = system: LOX IMVI; test: Cytotoxicity against human LOXIMVI cells assessed as growth inhibition after 48 hrs by sulforhodamine B assay
[18] = system: UACC-62; test: Cytotoxicity against human UACC62 cells assessed as cell growth at 100 uM after 48 hrs by sulforhodamine B assay relative to control; settings: UACC-62, 48 h, read-out: Activity
[19] = system: UO-31; test: Cytotoxicity against human UO31 cells assessed as cell growth at 100 uM after 48 hrs by sulforhodamine B assay relative to control; settings: UO-31, 48 h, read-out: Activity
[20] = system: SF-539; test: Cytotoxicity against human SF539 cells assessed as cell growth at 10 uM after 48 hrs by sulforhodamine B assay relative to control; settings: SF-539, 48 h, read-out: Activity
[21] = system: T47D; test: Cytotoxicity against human T47D cells assessed as cell growth at 0.01 uM after 48 hrs by sulforhodamine B assay relative to control; settings: read-out: Activity
[22] = system: SK-MEL-5; test: Cytotoxicity against human SK-MEL-5 cells assessed as cell growth at 0.1 uM after 48 hrs by sulforhodamine B assay relative to control; settings: SK-MEL-5, 48 h, read-out: Activity
[23] = system: UACC-62; test: Cytotoxicity against human UACC62 cells assessed as cell growth at 0.1 uM after 48 hrs by sulforhodamine B assay relative to control; settings: UACC-62, 48 h, read-out: Activity
[24] = system: HCC 2998; test: Cytotoxicity against human HCC2998 cells assessed as cell growth at 1 uM after 48 hrs by sulforhodamine B assay relative to control; settings: HCC 2998, 48 h, read-out: Activity
[25] = system: NCI-H522; test: Cytotoxicity against human NCI-H522 cells assessed as cell growth at 100 uM after 48 hrs by sulforhodamine B assay relative to control; settings: NCI-H522, 48 h, read-out: Activity
[26] = system: HCT-116; test: Cytotoxicity against human HCT116 cells assessed as cell growth at 100 uM after 48 hrs by sulforhodamine B assay relative to control; settings: HCT-116, 48 h, read-out: Activity
[27] = system: DU-145; test: Cytotoxicity against human DU145 cells assessed as growth inhibition after 48 hrs by sulforhodamine B assay; settings: DU-145, 48 h; for CC50: read-out: LC50 (the source's name)
[28] = system: OVCAR-5; test: Cytotoxicity against human OVCAR5 cells assessed as cell growth at 1 uM after 48 hrs by sulforhodamine B assay relative to control; settings: OVCAR-5, 48 h, read-out: Activity
[29] = system: MCF7; test: Cytotoxicity against human MCF7 cells assessed as cell growth at 0.01 uM after 48 hrs by sulforhodamine B assay relative to control; settings: MCF7, 48 h, read-out: Activity
[30] = system: HCT-116; test: Cytotoxicity against human HCT116 cells assessed as cell growth at 0.01 uM after 48 hrs by sulforhodamine B assay relative to control; settings: HCT-116, 48 h, read-out: Activity
[31] = system: MDA-MB-231; test: Cytotoxicity against human MDA-MB-231 cells assessed as growth inhibition after 48 hrs by sulforhodamine B assay; settings: MDA-MB-231, 48 h
[32] = system: SR; test: Cytotoxicity against human SR cells assessed as cell growth at 1 uM after 48 hrs by sulforhodamine B assay relative to control; settings: read-out: Activity
[33] = system: M14; test: Cytotoxicity against human M14 cells assessed as growth inhibition after 48 hrs by sulforhodamine B assay; settings: M14, 48 h
[34] = system: UACC-62; test: Cytotoxicity against human UACC62 cells assessed as growth inhibition after 48 hrs by sulforhodamine B assay; settings: UACC-62, 48 h
[35] = system: UO-31; test: Cytotoxicity against human UO31 cells assessed as cell growth at 10 uM after 48 hrs by sulforhodamine B assay relative to control; settings: UO-31, 48 h, read-out: Activity
[36] = system: UO-31; test: Cytotoxicity against human UO31 cells assessed as cell growth at 0.1 uM after 48 hrs by sulforhodamine B assay relative to control; settings: UO-31, 48 h, read-out: Activity

COc1ccc(C(=O)/C=C/c2cc(-c3ccc(OC)c(OC)c3)n[nH]2)cc1OC showed a GI50 [1] of 0.525 µM, a TGI [1] of 2.54 µM and a growth at 100 µM [2] of -2%. For the same compound, the growth at 0.01 µM [3] was 93%, the growth at 10 µM [4] was -84% and the growth at 100 µM [5] was -17%. For the same compound, the growth at 10 µM [6] was -38%, the growth at 1 µM [7] was 88% and the growth at 100 µM [8] was -36%. The growth at 100 µM [9] was -32%, the growth at 10 µM [10] was -62% and the growth at 0.1 µM [11] was 91%. It also gave a growth at 0.1 µM [12] of 84%, a growth at 0.1 µM [13] of 88% and a growth at 0.1 µM [14] of 94%. The growth at 1 µM [15] was 87%, the growth at 10 µM [16] was -80% and the GI50 [17] was 1.29 µM. For the same compound, the TGI [17] was 2.7 µM, the growth at 100 µM [18] was -49% and the growth at 100 µM [19] was -68%. It also gave a growth at 10 µM [20] of -51%, a growth at 0.01 µM [21] of 82% and a growth at 0.1 µM [22] of 96%. It also gave a growth at 0.1 µM [23] of 96%, a growth at 1 µM [24] of 95% and a growth at 100 µM [25] of -75%. The growth at 100 µM [26] was -45%, the GI50 [27] was 1.64 µM and the TGI [27] was 4.8 µM. It also gave a CC50 [27] of 17.4 µM, a growth at 1 µM [28] of 76% and a growth at 0.01 µM [29] of 85%. The growth at 0.01 µM [30] was 94%, the GI50 [31] was 1.88 µM and the TGI [31] was 6.38 µM. For the same compound, the growth at 1 µM [32] was 5%, the GI50 [33] was 1.91 µM and the TGI [33] was 4.11 µM. The GI50 [34] was 1.86 µM, the TGI [34] was 4.08 µM and the growth at 10 µM [35] was -52%. The growth at 0.1 µM [36] was 91%.

Work on COc1ccc(-c2cc(/C=C/C(=O)c3ccc(N)cc3)[nH]n2)cc1OC yielded a GI50 [1] of 1.73 µM, an LC50 (concentration killing 50% of cells) [1] of 7.19 µM and a TGI [1] of 3.53 µM. For the same compound, the growth at 100 µM [2] was -62%, the growth at 0.01 µM [3] was 98% and the growth at 10 µM [4] was -79%. For the same compound, the growth at 100 µM [5] was -5%, the growth at 10 µM [6] was -29% and the growth at 1 µM [7] was 92%. For the same compound, the growth at 100 µM [8] was -91%, the growth at 100 µM [9] was -93% and the growth at 10 µM [10] was -16%. It also gave a growth at 0.1 µM [11] of 93%, a growth at 0.1 µM [12] of 91% and a growth at 0.1 µM [13] of 91%. The growth at 0.1 µM [14] was 97%, the growth at 1 µM [15] was 94% and the growth at 10 µM [16] was -65%. For the same compound, the GI50 [17] was 1.92 µM, the LC50 [17] was 7.98 µM and the TGI [17] was 3.91 µM. It also gave a growth at 100 µM [18] of -86%, a growth at 100 µM [19] of -85% and a growth at 10 µM [20] of -73%. It also gave a growth at 0.01 µM [21] of 85%, a growth at 0.1 µM [22] of 95% and a growth at 0.1 µM [23] of 94%. The growth at 1 µM [24] was 105%, the growth at 100 µM [25] was -92% and the growth at 100 µM [26] was -89%. For the same compound, the GI50 [27] was 3.74 µM, the TGI [27] was 13.5 µM and the CC50 [27] was 36.8 µM. For the same compound, the growth at 1 µM [28] was 94%, the growth at 0.01 µM [29] was 89% and the growth at 0.01 µM [30] was 96%. For the same compound, the GI50 [31] was 4.42 µM, the LC50 [31] was 53.9 µM and the TGI [31] was 17.2 µM. It also gave a growth at 1 µM [32] of 34%, a GI50 [33] of 2.28 µM and an LC50 (concentration killing 50% of cells) [33] of 15 µM. The TGI [33] was 5.11 µM, the GI50 [34] was 3.11 µM and the LC50 [34] was 39.6 µM. The TGI [34] was 10.9 µM, the growth at 10 µM [35] was 11% and the growth at 0.1 µM [36] was 99%.

From ChEMBL document CHEMBL4138123, “Design, synthesis and biological evaluation of novel pyrazolochalcones as potential modulators of PI3K/Akt/mTOR pathway and inducers of apoptosis in breast cancer cells” (Eur J Med Chem, 2017)
